# Assay results: patent publication US4826968A, “S-alkylated coenzyme A with effect on polyamine acetylase” (Research Corporation, priority 1985, dated 1989)
# Columns and labels:
# [1] = target: T1, spermidine/spermine N^1 -acetyltransferase (Rattus norvegicus, UniProt Q6P9U6); test: Cytosolic spermidine acetyltransferase assay ([14C]acetyl Coenzyme A, cellulose phosphate paper); type: biochemical; conditions: for relative effectiveness in inhibiting the acetylation of spermidine and spermine: inhibitors compared with one another; for inhibitory activity towards spermidine/spermine N^1 -acetyltransferase / potency relative to the sym-norspermidine derivative: FIG. 2
# T1 construct: Cytosolic spermidine acetyltransferase activity was extracted from the livers of male Sprague-Dawley rats; from tissue; host or cells: liver of male Sprague-Dawley rats, 6 h after intraperitoneal carbon tetrachloride; cytosolic extract
# T1 sequence (Q6P9U6 1-171): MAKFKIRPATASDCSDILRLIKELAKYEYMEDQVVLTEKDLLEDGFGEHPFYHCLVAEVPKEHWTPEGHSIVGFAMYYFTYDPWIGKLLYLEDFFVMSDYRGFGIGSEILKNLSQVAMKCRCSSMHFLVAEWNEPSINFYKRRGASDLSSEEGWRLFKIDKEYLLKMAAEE
# Method: Spermidine acetyltransferase activity was assayed in a volume of 100 μl containing 100 μg of extract protein, 300 nmol spermidine, 0.8 nmol (40 nCi) [1^14 C] acetyl Coenzyme A and 10 μmol tris-HCl (pH 7.8). The reaction was allowed to proceed at 30° C. for 10 min and was terminated by the addition of 20 μl of 1M NH2 OH.HCl. Protein was precipitated by boiling the samples for 3 min and was removed by centrifugation. 50 μl of the supernatant was applied to a 2.2 cm diameter disc of cellulose phosphate paper and was allowed to dry. The discs were washed in a beaker five times with water and three times with ethanol.
# Non-enzymatic blank values for both histone and spermidine acetylation assays were routinely obtained by incubations of all the reactants excluding enzyme in the appropriate buffer.
# histone acetylation = conditions: mammalian cells; cited from earlier work
# embryogenesis = test: Fertility, implantation and embryonic development in treated mice; type: in vivo
# [2] = target: T1, spermidine/spermine N^1 -acetyltransferase; test: Cytosolic spermidine acetyltransferase assay ([14C]acetyl Coenzyme A, cellulose phosphate paper); type: biochemical; conditions: highly purified spermidine/spermine N^1 -acetyltransferase; FIG. 1
# rat hematoma cells = test: DNA replication and proliferation of rat hematoma cells in culture; type: cell-based
# [3] = tested on: exoerythrocyctic infection (malaria); test: Animal studies of malaria; type: in vivo
# Pneumocystis carinii = test: Treatment of Pneumocystis carinii pneumonia; type: in vivo; conditions: opportunistic infection in the setting of AIDS
# [4] = tested on: human prostate gland adenoma cells; test: DNA replication and proliferation of human prostate gland adenoma cells in culture; type: cell-based
# tumor growth = test: Experimental tumor models, tumor growth; type: in vivo; conditions: several experimental tumor models
# ventral prostate gland = test: Prostate gland secretion, growth and regrowth in rats; type: in vivo
# murine tumors = test: Murine tumors, alone and in combination with three cytotoxic agents; type: in vivo
# [5] = tested on: Trypanosoma brucei brucei; test: Replication of and infection by Trypanosoma brucei brucei; conditions: in vivo
# [6] = female mice treated prior to copulation and up to 18 days after fecundation
compound,measurement,setting,value
"NCCCN [1,3-diaminopropane]",relative effectiveness in inhibiting the acetylation of spermidine and spermine,[1],marginal superiority to putrescine
"CC(C)(COP(=O)(O)OP(=O)(O)OC[C@H]1O[C@@H](n2cnc3c(N)ncnc32)[C@H](O)[C@@H]1OP(=O)(O)O)[C@@H](O)C(=O)NCCC(=O)NCCSCC(=O)NCCCNCCCCN [I, N-[2-(S-Coenzyme A)acetyl] spermidine amide]",inhibitory activity towards spermidine/spermine N^1 -acetyltransferase,[1],strong inhibitors
same,potency relative to the sym-norspermidine derivative,[1],more than an order of magnitude less potent
"CC(C)(COP(=O)(O)OP(=O)(O)OC[C@H]1O[C@@H](n2cnc3c(N)ncnc32)[C@H](O)[C@@H]1OP(=O)(O)O)[C@@H](O)C(=O)NCCC(=O)NCCSCC(=O)NCCCCNCCCN [II, N-[2-(S-Coenzyme A)acetyl] spermidine amide]",inhibitory activity towards spermidine/spermine N^1 -acetyltransferase,[1],strong inhibitors
same,potency relative to the sym-norspermidine derivative,[1],more than an order of magnitude less potent
CC(C)(COP(=O)(O)OP(=O)(O)OC[C@H]1O[C@@H](n2cnc3c(N)ncnc32)[C@H](O)[C@@H]1OP(=O)(O)O)[C@@H](O)C(=O)NCCC(=O)NCCSCC(=O)NCCCNCCCCN [N-[2-(S-Coenzyme A)acetyl] spermidine amide],histone acetylation,histone acetylation,inhibit histone acetylation
CC(C)(COP(=O)(O)OP(=O)(O)OC[C@H]1O[C@@H](n2cnc3c(N)ncnc32)[C@H](O)[C@@H]1OP(=O)(O)O)[C@@H](O)C(=O)NCCC(=O)NCCSCC(=O)NCCCNCCCN [N-[2-(S-Coenzyme A)acetyl] sym-norspermidine amide],implantation,embryogenesis; [6],no effect
same,subsequent embryonic development,embryogenesis; [6],totally inhibited
same,fertility,embryogenesis; male and female mice treated prior to mating with untreated animals,no effect on fertility
same,inhibition of the acetylation of spermidine,[2],very potent inhibitor
same,DNA replication,rat hematoma cells,inhibits DNA replication
same,cell proliferation,rat hematoma cells,retards proliferation
same,efficacy against exoerythrocyctic infection,[3],effective therapeutic agent
same,efficacy in Pneumocystis carinii pneumonia,Pneumocystis carinii,effective in treatment
same,DNA replication,[4],inhibits DNA replication
same,cell proliferation,[4],retards proliferation
same,tumor growth,tumor growth,Marked retardation or arrest of tumor growth
same,androgen-induced prostatic regrowth,ventral prostate gland; castrated rats,marked slowing
same,prostate gland secretion,ventral prostate gland; rats,effectively inhibited
same,growth of the ventral prostate gland,"ventral prostate gland; rats, versus control group",significantly less than in the control group
same,inhibition of the acetylation of spermidine,"[1]; crude cytosolic extracts from livers of carbon tetrachloride treated rats, FIG. 1",very potent inhibitor
same,dependence of the inhibition on substrate concentration,[1]; no full kinetic analysis,greater when the assays were carried out at lower concentrations with either substrate
same,antitumor effect alone versus each cytotoxic drug,murine tumors; alone,superior to those of each cytotoxic drug
same,antitumor effect of combination with cytotoxic agents,murine tumors; combination with any of three cytotoxic agents,synegistic
same,T.b. brucei infection,[5],completely eliminating the infection
same,replication of Trypanosoma brucei brucei,[5],inhibits the replication
"CC(C)(COP(=O)(O)OP(=O)(O)OC[C@H]1O[C@@H](n2cnc3c(N)ncnc32)[C@H](O)[C@@H]1OP(=O)(O)O)[C@@H](O)C(=O)NCCC(=O)NCCSCC(=O)NCCCN [amide derived from 1,3-diaminopropane]",potency relative to the sym-norspermidine derivative,[1],much less active
same,inhibition relative to coenzyme A,[1]; FIG. 2C,marginally more inhibitory than coenzyme A
CC(C)(COP(=O)(O)OP(=O)(O)OC[C@H]1O[C@@H](n2cnc3c(N)ncnc32)[C@H](O)[C@@H]1OP(=O)(O)O)[C@@H](O)C(=O)NCCC(=O)NCCSCC(=O)NCCCCN [amide derived from putrescine],potency relative to the sym-norspermidine derivative,[1],much less active
NCCCCN [putrescine],relative effectiveness in inhibiting the acetylation of spermidine and spermine,[1],least effective
CC(C)(COP(=O)(O)OP(=O)(O)OC[C@H]1O[C@@H](n2cnc3c(N)ncnc32)[C@H](O)[C@@H]1OP(=O)(O)O)[C@@H](O)C(=O)NCCC(=O)NCCSCC(=O)NCCCCNCCCCN [sym-homospermidine derivative],potency relative to the sym-norspermidine derivative,[1],ten times less active
NCCCCNCCCCN [sym-homospermidine],relative effectiveness in inhibiting the acetylation of spermidine and spermine,[1],an order more effectiveness than the other two compounds
